Measured values from PubChem BioAssay (NCI).
“And” between values parts separate entries of the source, which are not always exact repeats. Equal values may be shown once.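 Dose response: 5 concentrations. Exposure: 48 h. Format: 96-well plates. Endpoint: linear interpolation; highest concentration if not reached. GI50 marks 50% less growth. At the TGI there is no net growth.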

Legend:
Test in all cases: DTP human tumour cell line panel, 48 h
SNB-19 CNS = test system: SNB-19 CNS
M19-MEL melanoma = test system: M19-MEL melanoma
SK-OV-3 ovarian = test system: SK-OV-3 ovarian
HCT-116 colon = test system: HCT-116 colon
A549 NSCLC = test system: A549 NSCLC
SW-620 colon = test system: SW-620 colon
DMS 273 small cell lung = test system: DMS 273 small cell lung
SF-539 CNS = test system: SF-539 CNS
IGROV1 ovarian = test system: IGROV1 ovarian
NCI-H522 lung = test system: NCI-H522 lung
HT29 colon = test system: HT29 colon
SR leukemia = test system: SR leukemia

Structure (SMILES) | TGI (SNB-19 CNS) [µM] | TGI (M19-MEL melanoma) | TGI (SK-OV-3 ovarian) [µM] | TGI (HCT-116 colon) | TGI (A549 NSCLC) | TGI (SW-620 colon) | TGI (DMS 273 small cell lung) | TGI (SF-539 CNS) | TGI (IGROV1 ovarian) | TGI (NCI-H522 lung) | TGI (HT29 colon) | TGI (SR leukemia) [µM] | GI50 (SNB-19 CNS) [µM] | GI50 (M19-MEL melanoma) [µM] | GI50 (HCT-116 colon) [µM] | GI50 (A549 NSCLC) [µM] | GI50 (DMS 273 small cell lung) [µM] | GI50 (IGROV1 ovarian) [µM] | GI50 (NCI-H522 lung) [µM] | GI50 (HT29 colon) [µM]
CCCCCCCC/C=C\CCCCCCCCCCCC(=O)O | > 64.5 | 97.2 µM | > 125 | 60.9 µM | > 125 µM | 90.1 µM | 48.7 µM | 40.4 µM | > 125 µM | 40 µM | > 125 µM | – | – | – | – | – | – | – | – | –
N=c1nnc2ccc(Cl)cc2n1O | > 100 | – | > 100 | > 100 µM | – | > 100 µM | – | – | > 100 µM | > 100 µM | > 100 µM | > 100 | – | – | – | – | – | – | – | –
O=C1C=C[C@@H](COC2OC(CO)C(O)C(O)C2O)O1 (stereo not given in full) | 53.2 | 16.3 µM and 26.8 µM | > 100 | 10.5 µM and > 100 µM | 76.9 µM and 62.6 µM | 16.1 µM and 15.8 µM | 13.9 µM and 39.6 µM | 17.6 µM and 18.4 µM | 34.9 µM and 83.1 µM | 5.61 µM and 18.4 µM | 5.69 µM and 19.2 µM | – | 20.6 | 3.8 | 2.63 | 16.7 | 2.44 | 14.2 | 2.22 | 1.62
Nc1c(S(=O)(=O)O)cc2cc(S(=O)(=O)O)ccc2c1N=Nc1ccc(-c2ccc(N=Nc3c(N)c(S(=O)(=O)O)cc4cc(S(=O)(=O)O)ccc34)c(S(=O)(=O)O)c2)cc1 | > 100 | > 100 µM | > 100 | > 100 µM | > 100 µM | > 100 µM | > 100 µM | > 100 µM | > 100 µM | > 100 µM | > 100 µM | – | – | – | – | – | – | – | – | –
CCN(CC)CCNC(=O)c1cc2cc(NC(=O)c3cc4cc([N+](=O)[O-])ccc4[nH]3)ccc2[nH]1 | > 100 | – | 71.4 | > 100 µM | > 100 µM | > 58 µM | – | > 49.7 µM | > 100 µM | – | > 100 µM | > 100 | – | – | – | – | – | – | – | –
Cc1ccc(NC(=O)CC2Sc3ccccc3NC2=O)cc1C (stereo not given) | > 100 | > 100 µM | > 100 | > 100 µM | > 100 µM | > 100 µM | > 100 µM | > 100 µM | > 100 µM | > 100 µM | > 100 µM | > 100 | – | – | – | – | – | – | – | –
Nc1nc(SCCC/C=C/I)nc2c1ncn2C1OC(COP(=O)(O)O)C(O)C1O (stereo not given) | > 100 | > 100 µM | > 100 | > 100 µM | > 100 µM | > 100 µM | > 100 µM | > 100 µM | > 100 µM | > 100 µM | > 100 µM | > 100 | – | – | – | – | – | – | – | –
N#C/C(=C1/Sc2c(nc[nH]c2=O)N1c1ccccc1)c1nc2ccccc2[nH]1 | > 100 | > 100 µM | > 100 | > 100 µM | > 100 µM | > 100 µM | > 100 µM | > 100 µM | > 100 µM | > 100 µM | > 100 µM | > 100 | – | – | – | – | – | – | – | –
Oc1ccc(-c2nc3ccc(Br)cc3s2)cc1 | 85.2 | – | 51.4 | 64.1 µM | 68.9 µM | > 100 µM | – | 35.8 µM | 33.6 µM | 22.9 µM | 50.5 µM | 36.2 | – | – | – | – | – | – | – | –
CC1=C(Cl)C=CP(=O)(Oc2ccccc2)C1 (stereo not given) | > 100 | – | – | > 100 µM | > 100 µM | > 100 µM | 75.9 µM | – | > 100 µM | 29.9 µM | – | – | – | – | – | – | – | – | – | –
COc1ccc(/C=c2\sc3n(c2=O)CCN=3)cc1 | – | > 100 µM | > 100 | > 100 µM | > 100 µM | > 100 µM | – | > 100 µM | – | > 100 µM | > 100 µM | > 100 | – | – | – | – | – | – | – | –
